This note sets out measurements from US8222282B2, “Sulfonate salts of 2-amino-3-carbethoxyamino-6-(4-fluoro-benzylamino)-pyridine” (Teva Pharmaceuticals USA, Inc., priority 2008, dated 2012).

Each structure is given as a SMILES string.

Assay type in all cases: physicochemical
The nature of data set [1]: Oxidative stability: HPLC of flupirtine salts after storage at room temperature under open air. The note with it: for decrease of area under the peak of the flupirtine signal: 0 to 14 days, room temperature, open air; for Flupirtine signal after 14 days (area under the peak in, %): HPLC after 14 days of storage at room temperature under open air; for Flupirtine signal after 0 days (area under the peak in, %): HPLC after isolation and drying. The method, then: HPLC Method [table] HPLC analysis was performed after isolation and drying of flupirtine maleate form A and flupirtine sulfonate salts and repeated after 14 days of storage at room temperature under open air.

Data set [2] is described as follows: Solubility in demineralised water (photometric). The note with it: 60 min stirring at 20° C.; for solubility thermodynamic at 60 min: demineralised water. How it is done:
[…] Subsequently, an aliquot of the solution was centrifuged at 10,000 rpm and the flupirtine absorption was photometrically determined in the supernatant. The amount of flupirtine in solution was calculated with a response factor (absorption/mg substance).

Data set [3] is described as follows: Oxidative stability: HPLC of flupirtine salts after storage at room temperature under open air. The note with it: exposed to air, 30 days at room temperature; in contrast to maleate, gluconate or inorganic salts.
Data set [4] is described as follows: Bulk density of flupirtine salts. The note with it: volume per 100.0 g of sample material. The method, then:
The bulk density was determined as follows: Without increasing its density, sample material (about 4 grams) was introduced into a 10 ml measuring cylinder (±0.2 ml). The volume and the exact weight of the introduced sample material were determined. The bulk density was calculated as volume per 100.0 g of sample material.

Data set [5] in a line: Discolouration measurements, optical comparison with RAL scale of colours. The note with it: 60° C. and 70° C., alone and in mixture with MCC, lactose or DiCaPhos, dry and 100% rh. The method, then:
Discolouration was measured using optical comparison with a standard: the RAL scale of colours (see list). The colour changes during the experiment were compared to this standard list and the appropriate value was noted. The intensity was increasing on a scale ranging from 1 to 10.
A higher number means more discolouration. The increase in colour intensity is not proportional but qualitative.
The colouration of flupirtine maleate and flupirtine mesilate has been observed at 60° C. and at 70° C. with the substance alone and in mixture with micro crystalline cellulose (MCC), with lactose or with dicalcium phosphate DiCaPhos (CaHPO4). The tests were performed under dry and neat conditions. Neat refers to saturated with moisture, i.e., 100% relative humidity (rh). […] Only with lactose moisture had to be avoided for the mesilate.

On to `CCOC(=O)Nc1ccc(NCc2ccc(F)cc2)nc1N.O=S(=O)(O)c1ccccc1` [Flupirtine besilate, 2-amino-3-carbethoxyamino-6-(4-fluoro-benzylamino)-pyridine Besilate], for which, in data set [1], the “decrease of area under the peak of the flupirtine signal” value was “less than 0.1%”; the “Flupirtine signal after 14 days (area under the peak in, %)” value was 96.87%; the “Flupirtine signal after 0 days (area under the peak in, %)” value was determined as 96.93%. Besides, the thermodynamic solubility at 60 min in data set [2] stood at 32 µg/mL. The “stability towards oxidation and towards discolouration” value in data set [3] was “substantially improved stability”. Further, the Bulk density in data set [4] was determined as 358 ml/100 g substance.

For `CCOC(=O)Nc1ccc(NCc2ccc(F)cc2)nc1N.O=C(O)/C=C\C(=O)O` [Flupirtine maleate A, reference compound], in data set [1], the “decrease of area under the peak of the flupirtine signal” value is reported as 3.11%; the “Flupirtine signal after 14 days (area under the peak in, %)” value worked out at 96.18%; the “Flupirtine signal after 0 days (area under the peak in, %)” value was 99.27%. This compound also had a Solubility in data set [2] of 1.6 mg/100 ml water. Besides, the Bulk density in data set [4] (listed as Maleate Form A) is recorded as 686 ml/100 g substance.

Turning to `CCOC(=O)Nc1ccc(NCc2ccc(F)cc2)nc1N.CS(=O)(=O)O` [Flupirtine mesilate, 2-amino-3-carbethoxyamino-6-(4-fluoro-benzylamino)-pyridine Mesilate], in data set [1], the “Flupirtine signal after 14 days (area under the peak in, %)” value amounted to 96.81% and the “Flupirtine signal after 0 days (area under the peak in, %)” value came to 97.69%. Moreover, the “discolouration compared to maleate” value in data set [5] is given as “equal or less discolouration”. In data set [2], this compound registered a thermodynamic solubility at 60 min of 52 µg/mL. Further, the “stability towards oxidation and towards discolouration” value in data set [3] is recorded as “substantially improved stability”. Also, the Bulk density in data set [4] is listed as 478 ml/100 g substance.

Take `CCOC(=O)Nc1ccc(NCc2ccc(F)cc2)nc1N.Cc1ccc(S(=O)(=O)O)cc1` [Flupirtine tosilate, 2-amino-3-carbethoxyamino-6-(4-fluoro-benzylamino)-pyridine Tosilate]: the Bulk density in data set [4] was determined as 420 ml/100 g substance.

Turning to `CCOC(=O)Nc1ccc(NCc2ccc(F)cc2)nc1N.O=C(O)/C=C\C(=O)O` [Maleate Form B, reference compound], the Bulk density in data set [4] is reported as 1634 ml/100 g substance.

What is called thermodynamic solubility is solubility found after equilibrating the solid with the medium.
